Assay results: publication doi:10.1101/2023.10.03.560722, “Drug Discovery in Low Data Regimes: Leveraging a Computational Pipeline for the Discovery of Novel SARS-CoV-2 Nsp14-MTase Inhibitors” (bioRxiv, 2024)
Read-outs that look alike come from different tables or passages of the source.

Columns and labels:
Assay type in all cases: biochemical
[1] = molecular target: PRMT3 (Homo sapiens, UniProt O60678); assay: human MTase selectivity panel
[2] = molecular target: PRMT1 (Homo sapiens, UniProt Q99873); assay: human MTase selectivity panel
[3] = molecular target: MLL3 (Homo sapiens, UniProt Q8NEZ4); assay: human MTase selectivity panel
[4] = molecular target: SUV420H2 (Homo sapiens, UniProt Q86Y97); assay: human MTase selectivity panel
[5] = molecular target: T1, SMYD3 (Homo sapiens, UniProt Q9H7B4); assay: human MTase selectivity panel
T1 sequence (Q9H7B4 1-428): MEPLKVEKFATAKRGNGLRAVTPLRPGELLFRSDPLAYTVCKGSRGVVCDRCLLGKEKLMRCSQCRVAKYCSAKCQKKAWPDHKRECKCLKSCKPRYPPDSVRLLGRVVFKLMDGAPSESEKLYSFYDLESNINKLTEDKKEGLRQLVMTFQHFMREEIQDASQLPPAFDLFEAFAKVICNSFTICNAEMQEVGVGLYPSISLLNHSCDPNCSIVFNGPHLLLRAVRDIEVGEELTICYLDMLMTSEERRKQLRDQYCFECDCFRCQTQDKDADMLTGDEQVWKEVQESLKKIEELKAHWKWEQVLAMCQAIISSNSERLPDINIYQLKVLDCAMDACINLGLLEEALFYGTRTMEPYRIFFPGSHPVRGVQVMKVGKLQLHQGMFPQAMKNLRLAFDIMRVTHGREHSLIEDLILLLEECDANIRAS

[6] = molecular target: human RNMT (N7 guanosine RNA methyltransferase) (Homo sapiens, UniProt O43148); assay: RNMT activity inhibition (selectivity)
[7] = molecular target: T2, PRMT9 (Homo sapiens, UniProt Q6P2P2); assay: human MTase selectivity panel
T2 sequence (Q6P2P2 1-845): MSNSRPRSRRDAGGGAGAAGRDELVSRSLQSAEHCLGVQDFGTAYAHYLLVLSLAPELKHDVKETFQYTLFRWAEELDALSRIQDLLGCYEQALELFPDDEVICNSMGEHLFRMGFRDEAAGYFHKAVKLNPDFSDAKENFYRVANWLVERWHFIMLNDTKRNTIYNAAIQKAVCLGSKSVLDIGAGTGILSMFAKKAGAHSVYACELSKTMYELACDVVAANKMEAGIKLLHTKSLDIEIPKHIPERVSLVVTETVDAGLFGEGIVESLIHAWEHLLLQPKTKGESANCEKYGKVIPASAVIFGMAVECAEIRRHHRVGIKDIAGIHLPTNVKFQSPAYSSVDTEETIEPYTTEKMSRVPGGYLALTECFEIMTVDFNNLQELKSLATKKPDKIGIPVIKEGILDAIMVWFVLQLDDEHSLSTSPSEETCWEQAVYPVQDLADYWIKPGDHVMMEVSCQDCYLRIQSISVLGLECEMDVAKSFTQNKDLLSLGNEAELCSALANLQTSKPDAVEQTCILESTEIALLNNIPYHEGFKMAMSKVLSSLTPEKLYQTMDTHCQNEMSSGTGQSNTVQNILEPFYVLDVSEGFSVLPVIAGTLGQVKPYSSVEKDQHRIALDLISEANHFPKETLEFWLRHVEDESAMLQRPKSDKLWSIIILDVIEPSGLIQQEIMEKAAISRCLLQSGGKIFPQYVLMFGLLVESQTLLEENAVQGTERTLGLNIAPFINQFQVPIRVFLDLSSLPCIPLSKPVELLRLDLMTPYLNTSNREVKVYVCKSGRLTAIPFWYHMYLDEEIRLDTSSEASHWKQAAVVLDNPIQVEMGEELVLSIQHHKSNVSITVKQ

[8] = molecular target: SUV420H1 (Homo sapiens, UniProt Q4FZB7); assay: human MTase selectivity panel
[9] = molecular target: PRMT5 (Homo sapiens, UniProt O14744); assay: human MTase selectivity panel
[10] = molecular target: SMYD2 (Homo sapiens, UniProt Q9NRG4); assay: human MTase selectivity panel
[11] = molecular target: T3, SETD7 (Homo sapiens, UniProt Q8WTS6); assay: human MTase selectivity panel
T3 sequence (Q8WTS6 1-366): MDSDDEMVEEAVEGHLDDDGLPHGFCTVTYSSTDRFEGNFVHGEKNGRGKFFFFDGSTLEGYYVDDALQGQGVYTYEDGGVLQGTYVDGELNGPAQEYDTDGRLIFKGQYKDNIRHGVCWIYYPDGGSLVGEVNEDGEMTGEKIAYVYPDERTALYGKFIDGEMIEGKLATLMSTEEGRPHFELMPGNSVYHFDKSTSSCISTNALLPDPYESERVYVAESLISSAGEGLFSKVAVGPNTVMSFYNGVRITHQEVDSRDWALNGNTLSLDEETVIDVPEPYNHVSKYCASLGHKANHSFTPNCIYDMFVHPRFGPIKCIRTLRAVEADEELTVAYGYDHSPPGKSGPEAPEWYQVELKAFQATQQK

[12] = average ± SD, read-out: Activity (%) at 10 µM Average
[13] = read-out: Activity (%) at 10 µM Replicate 1
[14] = read-out: Activity (%) at 10 µM Replicate 2
[15] = read-out: Activity (%) at 10 µM Replicate 3

SMYD2, sequence (Q9NRG4 whole entry): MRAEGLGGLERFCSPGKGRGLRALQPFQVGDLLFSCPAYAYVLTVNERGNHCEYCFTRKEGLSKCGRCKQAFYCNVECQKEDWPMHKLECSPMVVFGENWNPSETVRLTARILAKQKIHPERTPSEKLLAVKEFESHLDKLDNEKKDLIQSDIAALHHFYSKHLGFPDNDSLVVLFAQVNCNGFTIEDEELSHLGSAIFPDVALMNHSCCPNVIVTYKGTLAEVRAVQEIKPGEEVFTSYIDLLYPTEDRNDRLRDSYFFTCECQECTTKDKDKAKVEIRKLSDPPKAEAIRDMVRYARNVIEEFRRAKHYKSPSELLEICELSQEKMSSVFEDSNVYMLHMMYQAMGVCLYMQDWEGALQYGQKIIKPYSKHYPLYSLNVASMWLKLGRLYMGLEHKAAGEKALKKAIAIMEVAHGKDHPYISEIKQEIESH
SUV420H2, sequence (Q86Y97 whole entry): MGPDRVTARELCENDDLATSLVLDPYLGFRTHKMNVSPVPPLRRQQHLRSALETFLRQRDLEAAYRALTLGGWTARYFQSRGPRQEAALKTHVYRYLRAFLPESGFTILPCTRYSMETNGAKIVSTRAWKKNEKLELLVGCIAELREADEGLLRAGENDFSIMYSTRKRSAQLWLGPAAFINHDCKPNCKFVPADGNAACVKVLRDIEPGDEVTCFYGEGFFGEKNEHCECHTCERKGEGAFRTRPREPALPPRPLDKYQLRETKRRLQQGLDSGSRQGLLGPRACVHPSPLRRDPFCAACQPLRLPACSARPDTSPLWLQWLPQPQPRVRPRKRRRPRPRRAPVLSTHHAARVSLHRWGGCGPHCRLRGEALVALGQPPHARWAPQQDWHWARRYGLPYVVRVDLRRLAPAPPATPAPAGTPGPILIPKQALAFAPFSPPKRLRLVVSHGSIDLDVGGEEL
PRMT1, sequence (Q99873 whole entry): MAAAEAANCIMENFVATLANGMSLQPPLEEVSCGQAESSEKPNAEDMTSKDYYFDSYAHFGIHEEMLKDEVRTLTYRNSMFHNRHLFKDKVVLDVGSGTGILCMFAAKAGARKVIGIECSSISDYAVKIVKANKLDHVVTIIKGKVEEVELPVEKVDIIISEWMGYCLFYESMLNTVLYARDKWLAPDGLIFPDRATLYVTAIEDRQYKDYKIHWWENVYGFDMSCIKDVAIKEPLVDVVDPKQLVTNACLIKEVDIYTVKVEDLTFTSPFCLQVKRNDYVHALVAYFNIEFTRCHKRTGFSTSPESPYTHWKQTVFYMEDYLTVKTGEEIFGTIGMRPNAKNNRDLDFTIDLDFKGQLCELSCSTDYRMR
PRMT3, sequence (O60678 whole entry): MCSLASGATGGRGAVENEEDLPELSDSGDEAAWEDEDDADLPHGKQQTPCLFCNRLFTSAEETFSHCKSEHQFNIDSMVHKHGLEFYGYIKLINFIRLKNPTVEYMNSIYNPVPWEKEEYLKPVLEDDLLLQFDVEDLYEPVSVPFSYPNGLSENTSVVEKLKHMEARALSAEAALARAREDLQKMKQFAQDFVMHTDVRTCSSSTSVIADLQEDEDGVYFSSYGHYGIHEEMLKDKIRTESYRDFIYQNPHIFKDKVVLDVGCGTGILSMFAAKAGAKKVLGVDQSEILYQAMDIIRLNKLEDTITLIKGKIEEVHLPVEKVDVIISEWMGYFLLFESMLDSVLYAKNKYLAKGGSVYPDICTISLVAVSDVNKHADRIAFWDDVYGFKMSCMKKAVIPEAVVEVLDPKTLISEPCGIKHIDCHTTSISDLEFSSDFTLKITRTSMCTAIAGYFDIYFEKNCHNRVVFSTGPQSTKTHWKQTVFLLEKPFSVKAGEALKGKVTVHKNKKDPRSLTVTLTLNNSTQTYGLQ
SUV420H1, sequence (Q4FZB7 whole entry): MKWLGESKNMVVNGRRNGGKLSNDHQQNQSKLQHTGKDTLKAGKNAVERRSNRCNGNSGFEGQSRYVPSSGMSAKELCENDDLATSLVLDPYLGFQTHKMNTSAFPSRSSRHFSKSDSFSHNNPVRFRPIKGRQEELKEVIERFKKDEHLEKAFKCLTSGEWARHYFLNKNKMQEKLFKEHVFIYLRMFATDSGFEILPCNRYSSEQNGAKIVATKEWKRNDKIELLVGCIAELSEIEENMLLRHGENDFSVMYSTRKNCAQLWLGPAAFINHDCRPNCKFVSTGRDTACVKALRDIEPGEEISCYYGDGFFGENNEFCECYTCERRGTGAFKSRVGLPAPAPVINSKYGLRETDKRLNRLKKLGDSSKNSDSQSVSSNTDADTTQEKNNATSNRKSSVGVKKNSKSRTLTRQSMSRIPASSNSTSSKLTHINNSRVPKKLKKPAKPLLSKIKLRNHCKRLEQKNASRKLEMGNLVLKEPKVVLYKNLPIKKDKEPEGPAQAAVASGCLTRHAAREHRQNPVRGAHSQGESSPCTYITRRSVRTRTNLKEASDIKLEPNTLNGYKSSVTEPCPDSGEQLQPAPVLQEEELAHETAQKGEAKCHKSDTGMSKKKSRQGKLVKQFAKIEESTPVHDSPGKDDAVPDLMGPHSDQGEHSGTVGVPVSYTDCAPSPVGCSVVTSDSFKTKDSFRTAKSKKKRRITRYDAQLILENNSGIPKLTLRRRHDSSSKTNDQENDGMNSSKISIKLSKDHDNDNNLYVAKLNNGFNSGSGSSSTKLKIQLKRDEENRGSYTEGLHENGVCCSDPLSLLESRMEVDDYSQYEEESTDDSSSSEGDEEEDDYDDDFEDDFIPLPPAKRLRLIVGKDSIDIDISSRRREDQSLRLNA
PRMT5, sequence (O14744 whole entry): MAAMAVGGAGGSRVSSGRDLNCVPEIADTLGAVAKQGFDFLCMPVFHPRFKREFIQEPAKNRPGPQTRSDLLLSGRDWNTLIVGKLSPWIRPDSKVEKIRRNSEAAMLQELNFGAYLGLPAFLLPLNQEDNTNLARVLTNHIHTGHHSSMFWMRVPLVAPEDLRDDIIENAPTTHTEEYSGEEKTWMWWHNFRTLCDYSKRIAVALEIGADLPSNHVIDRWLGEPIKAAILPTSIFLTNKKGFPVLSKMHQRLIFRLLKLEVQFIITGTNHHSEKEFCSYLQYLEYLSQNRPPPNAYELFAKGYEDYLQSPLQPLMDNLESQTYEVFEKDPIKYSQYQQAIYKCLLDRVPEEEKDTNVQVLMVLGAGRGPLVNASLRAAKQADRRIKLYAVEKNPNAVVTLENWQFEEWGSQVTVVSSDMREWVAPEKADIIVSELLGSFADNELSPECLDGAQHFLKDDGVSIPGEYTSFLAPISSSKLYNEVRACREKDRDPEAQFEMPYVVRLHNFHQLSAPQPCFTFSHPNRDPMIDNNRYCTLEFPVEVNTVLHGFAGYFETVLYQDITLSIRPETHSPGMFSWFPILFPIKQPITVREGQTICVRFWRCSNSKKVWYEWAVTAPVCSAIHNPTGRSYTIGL
PRMT5, sequence (Q9BQA1 whole entry partner): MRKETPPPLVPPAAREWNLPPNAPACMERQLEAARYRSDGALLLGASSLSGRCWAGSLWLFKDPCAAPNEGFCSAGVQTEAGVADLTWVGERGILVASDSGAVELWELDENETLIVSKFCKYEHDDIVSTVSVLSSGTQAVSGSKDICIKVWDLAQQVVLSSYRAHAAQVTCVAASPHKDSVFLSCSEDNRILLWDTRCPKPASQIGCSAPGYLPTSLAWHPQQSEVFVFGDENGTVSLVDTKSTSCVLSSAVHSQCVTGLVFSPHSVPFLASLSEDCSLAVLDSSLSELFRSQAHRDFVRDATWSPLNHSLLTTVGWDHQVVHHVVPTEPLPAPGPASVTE
human RNMT (N7 guanosine RNA methyltransferase), sequence (O43148 whole entry): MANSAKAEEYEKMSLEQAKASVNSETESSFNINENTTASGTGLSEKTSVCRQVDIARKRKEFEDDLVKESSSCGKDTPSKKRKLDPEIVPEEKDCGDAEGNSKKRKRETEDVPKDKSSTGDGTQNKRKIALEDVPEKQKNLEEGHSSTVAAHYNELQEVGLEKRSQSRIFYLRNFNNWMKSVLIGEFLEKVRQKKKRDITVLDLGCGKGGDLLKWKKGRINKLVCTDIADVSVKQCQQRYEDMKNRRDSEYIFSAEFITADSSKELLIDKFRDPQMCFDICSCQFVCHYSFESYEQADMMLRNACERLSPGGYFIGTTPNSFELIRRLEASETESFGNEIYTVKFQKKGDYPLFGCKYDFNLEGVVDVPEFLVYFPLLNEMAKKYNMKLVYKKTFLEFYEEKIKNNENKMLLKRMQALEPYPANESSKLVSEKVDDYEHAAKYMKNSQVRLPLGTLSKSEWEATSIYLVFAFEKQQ

## Nc1ncnc2c1ncn2[C@@H]1O[C@H](CSCc2ccc(Cl)cc2)[C@@H](O)[C@H]1O [NSC620333]
[1]; [12]
  activity at 10 µM: 79 ± 5%
[1]; [13]
  activity at 10 µM: 75%
[1]; [14]
  activity at 10 µM: 78%
[1]; [15]
  activity at 10 µM: 85%
[2]; [12]
  activity at 10 µM: 91 ± 6%
[2]; [13]
  activity at 10 µM: 97%
[2]; [14]
  activity at 10 µM: 94%
[2]; [15]
  activity at 10 µM: 84%
[3]; [12]
  activity at 10 µM: 51 ± 6%
[3]; [13]
  activity at 10 µM: 44%
[3]; [14]
  activity at 10 µM: 57%
[3]; [15]
  activity at 10 µM: 53%
[4]; [12]
  activity at 10 µM: 96 ± 9%
[4]; [13]
  activity at 10 µM: 96%
[4]; [14]
  activity at 10 µM: 104%
[4]; [15]
  activity at 10 µM: 86%
[5]; [12]
  activity at 10 µM: 100 ± 9%
[5]; [13]
  activity at 10 µM: 101%
[5]; [14]
  activity at 10 µM: 108%
[5]; [15]
  activity at 10 µM: 91%
[6]; RNMT
  IC50: 8.6 ± 1.3 µM
[6]; RNMT IC50 curve
  Hill Slope: -1.5
[7]; [12]
  activity at 10 µM: 117 ± 3%
[7]; [13]
  activity at 10 µM: 118%
[7]; [14]
  activity at 10 µM: 118%
[7]; [15]
  activity at 10 µM: 113%
[8]; [12]
  activity at 10 µM: 93 ± 8%
[8]; [13]
  activity at 10 µM: 84%
[8]; [14]
  activity at 10 µM: 97%
[8]; [15]
  activity at 10 µM: 98%
[9]; [12]
  activity at 10 µM: 63 ± 7%
[9]; [13]
  activity at 10 µM: 69%
[9]; [14]
  activity at 10 µM: 64%
[9]; [15]
  activity at 10 µM: 55%
[10]; [12]
  activity at 10 µM: 105 ± 8%
[10]; [13]
  activity at 10 µM: 104%
[10]; [14]
  activity at 10 µM: 114%
[10]; [15]
  activity at 10 µM: 99%
[11]; [12]
  activity at 10 µM: 87 ± 1%
[11]; [13]
  activity at 10 µM: 85%
[11]; [14]
  activity at 10 µM: 88%
[11]; [15]
  activity at 10 µM: 87%
